Laboratory results: US20030236218A1, “Aryl phosphate derivatives of d4T with selective activity against adenovirus and HIV” (priority 2002, published 2003)
≈ marks a conversion by molar mass, not a printed value. Marks after values point to notes of the source that are not given here.

Columns and labels:
[1] = Octanol/water partition coefficient, shake flask method; type: physicochemical; details: 4 hours at room temperature
Method: HPLC purification was achieved using a reverse-phase Lichrospher column (250×4 mm, Hewlett-Packard, RP-18, Cat. #79925) and an isocratic flow (1 ml/minute) consisting of water (70%) and acetonitrile (30%). Melting points were determined using a Melt John's apparatus and are uncorrected. Column chromatography was performed using silica gel obtained from Baker Company. The octanol/water partition coefficient was determined by the shake flask method. The phosphoramidate analogs were added to 2 ml of water and 2 ml of octanol in a glass vial. The mixture was shaken for 4 hours at room temperature. The two phases were carefully separated and filtered through a Millipore filter and analyzed by HPLC. The partition coefficient was calculated using the ratio of the area under the curve for octanol and water, respectively.

[2] = Solubility; type: physicochemical
[3] = Hydrolysis rate in alkali conditions; type: physicochemical
Method: (§1) Statistical analysis. Each drug was tested at 6-7 different concentrations ranging from 0.0001 μM to 100 μM. Each assay was set up in triplicate wells and repeated 1-3 times. An IC50 value was calculated from each set of triplicate wells using nonlinear regression modeling of the exponential form of the linearized equation (Statview, SAS Institute, Inc., Cary, N.C.). Hydrolysis rates were determined by fitting single exponential decay equations to the disappearance of the compound in alkali conditions (all R^2 values greater than 0.85). The IC50 values obtained were correlated to the log transformed hydrolysis rate constants by fitting a linear model (JMP Software, SAS Institute Inc., Cary, N.C.). P-values less than 0.05 were deemed significant.

[4] = system: adenovirus strain Type 5, strain adenoid 75; assay: Adenovirus plaque formation assay in skin fibroblast cell line SF; type: cell-based, human adenovirus; details: Adenovirus Type 5, 7 days, ± s.e., read-out: IC50, ADV-induced plaque formation
Source text: Virus stocks. The HIV-1 strain used in this study was HTLV-IIIB (Uckun et al., 1998 Antimicro. Agents and Chemother., 42:383-388). The non-HIV viruses included in the present study were the gancyclovir-sensitive cytomegalovirus (CMV) strain AD169 (ATCC VR-538); acyclovir-sensitive herpes simplex virus (HSV) Type I strain HF (ATCC VR-260); acyclovir-sensitive HSV Type II strain G (ATCC VR-734); adenovirus strain Type 5, strain adenoid 75 (ATCC VR-5); enterovirus strain, ECHO 30, strain Bastianni (ATCC VR-322); and respiratory syncytial virus (RSV), strain Long (ATCC VR-26).
Plaque formation assays. Plaque assays were used to examine the activity of the compounds against non-HIV viruses. The skin fibroblast cell line SF (ATCC CRL-2097) was used as a target for AD169, Adenovirus Type 5. […] cell line (ATCC CCL-81) was used as a target for HSV HF and G. The HEP-2 cell line (ATCC CCL-23) was used as a target for the RSV strain Long. These cell lines were cultured at 1×10^5 cells/well in 24-well (all but ECHO 30-infected SF) or 6-well (ECHO 30-infected SF) tissue culture plates with 0.9% methylcellulose or 0.4% SeaPlaque agarose semisolid support. Minimum Essential Medium (MEM) with Earle's salts (Gibco), L-glutamine, non-essential amino acids, 2% heat-inactivated fetal bovine serum, 1% penicillin/streptomycin, and 0.05% gentamicin served as the culture medium. The incubation times were 3 days for HF, G, ECHO 30, and Long; and 7 days for AD169 and Adenovirus Type 5. Plaque counting was performed with a 20X dissecting microscope for AD169, Type 5, ECHO 30, and RSV Long, and with a light box for HF and G. The fixative agent was crystal violet for all viruses, except for the CMV strain AD169 for which methylene blue was used. Percent inhibition of plaque formation was calculated by comparing the plaque numbers from the test substance-treated infected cells with the plaque numbers from untreated infected cells (i.e., virus controls). The IC50 values were determined using the Statview statistics program (SAS Institute, Inc., Cary, N.C.).
as §1, with “Hydrolysis rates were determined by fitting single exponential decay equations to the disappearance of the compound in alkali conditions (all R^2 values greater than 0.85).” left out
The skin fibroblast cell line SF (ATCC CRL-2097) was used as a target for AD169, Adenovirus Type 5, and ECHO 30; the VERO cell line (ATCC CCL-81) was used as a target for HF and G; and the HEP-2 cell line (ATCC CCL-23) was used as target for the RSV strain Long. Results are expressed as the average IC50 values in μM. Stavudine (STV) was included as a control.

[5] = Pharmacokinetic studies in mice, intravenous administration; type: in vivo, Balb/c mice; details: plasma analyte = label, after i.v. 100 mg/kg compound 113
Method: Female Balb/c mice (6-8 weeks old) from Taconic (Germantown, N.Y.) were housed in a controlled environment (12-hours of light/12-hours of dark, 22±1° C., 60±10% relative humidity), which is fully accredited by the USDA. All rodents were housed in microisolator cages (Lab Products, Inc., NJ) containing autoclaved bedding. The mice were allowed free access to autoclaved pellet food and tap water throughout the study.
Blood samples (˜500 μL) were obtained from the ocular venous plexus by retro-orbital venipuncture at 0, 2, 5, 10, 15, 30, 45, 60, 120, 240 and 360 minutes after intravenous injection.
All collected blood samples were heparinized and centrifuged at 7000×g for 5 minutes to separate the plasma fraction from the whole blood. The plasma samples were then processed immediately using the extraction procedure described above.
Pharmacokinetic modeling and parameter calculations were carried out using the WinNonlin Professional Version 3.0 (Pharsight, Inc., Mountain, Calif.) pharmacokinetics software (Chen et al., Pharm. Res., 16, 1003 (1999); Chen et al., Pharm. Res., 16, 117 (1999); Chen et al., J. Clin. Pharmacol., 39, 1248 (1999); Uckun et al., Clin. Cancer Res., 5, 2954 (1999); and Uckun et al., J. Pharmacol. Exp. Ther., 291, 1301 (1999)). An appropriate model was chosen on the basis of the lowest sum of weighted squared residuals, the lowest Schwartz Criterion (SC), the lowest Akaike's Information Criterion (AIC) value, the lowest standard errors of the fitted parameters, and the dispersion of the residuals. The elimination half-life was estimated by linear regression analysis of the terminal phase of the plasma concentration-time profile. The area under the concentration-time curve (AUC) was calculated according to the linear trapezoidal rule between the first sampling time (0 hours) and the last sampling time plus C/k, where C is the concentration of the last sampling and k is the elimination rate constant. The systemic clearance (CL) was determined by dividing the dose by the AUC. The metabolic clearance of the parent drug, the formation clearance of the metabolite, the clearance elimination of the metabolite, and the distribution clearance of the metabolite were estimated by simultaneous fitting of the concentration of parent drug and metabolites as a function of time curve to pharmacokinetic models (see FIGS. 7A & 8A) specified as a system of differential equations (Gabrielsson & Weiner, Phamacokinetic/Phamacodynamic Data Analysis: Concepts and Applications, Swedish Pharmaceutical Press (1997)).

[6] = estimate from composite curve of pooled data

Compound | Oct/Water (log P) [1] | Solubility [2] [µg/mL] | Hydrolysis Rate [3] [min⁻¹] | IC50 [4] [nM] | Vss [5, 6] [L/kg] | Vss ([5]; mean ± S.E.M)
COC(=O)C(C)NP(=O)(OCC1C=CC(n2cc(C)c(=O)[nH]c2=O)O1)Oc1ccccc1Br (stereo not shown) [Compound 605, 5′-[2-Bromophenylmethoxyalaninyl phosphate]-2′, 3′-didehydro-3′-deoxy thymidine] | 0.95 | 4200 | 0.0336 | 38.5 ± 22 |  | 
COC(=O)C(C)NP(=O)(OCC1C=CC(n2cc(C)c(=O)[nH]c2=O)O1)Oc1ccccc1Cl (stereo not shown) [Compound 606, 5′-[2-Chlorophenylmethoxyalaninyl phosphate]-2′, 3′-didehydro-3′-deoxy thymidine] | 0.84 | 7300 | 0.0370 | 28.5 ± 12 |  | 
COC(=O)C(C)NP(=O)(OCC1C=CC(n2cc(C)c(=O)[nH]c2=O)O1)Oc1cccc(Br)c1 (stereo not shown) [Compound 602, 5′-[3-Bromophenylmethoxyalaninyl phosphate]-2′, 3′-didehydro-3′-deoxy thymidine] |  |  | 0.0338 | 235 ± 145 |  | 
COC(=O)C(C)NP(=O)(OCC1C=CC(n2cc(C)c(=O)[nH]c2=O)O1)Oc1ccc(Br)cc1Cl (stereo not shown) [Compound 603, 5′-[4-Bromo-2-chlorophenylmethoxyalaninyl phosphate]-2′, 3′-didehydro-3′-deoxy thymidine] | 1.81 | 1800 | 0.1500 | 80 ± 10 |  | 
COC(=O)[C@H](C)NP(=O)(OCC1C=CC(n2cc(C)c(=O)[nH]c2=O)O1)Oc1ccc(Br)cc1 (stereo partly shown) |  |  |  |  | 0.7311 | (791.8 ± 113.1) ml/kg
COC(=O)[C@H](C)NP(=O)(OCC1C=CC(n2cc(C)c(=O)[nH]c2=O)O1)Oc1ccc(F)cc1 (stereo partly shown) [Compound 604, 5′-[4-Flurophenylmethoxyalaninyl phosphate]-2′, 3′-didehydro-3′-deoxy thymidine] | 0.54 | 7500 | 0.0117 | 100 ± 40 |  | 
COC(=O)[C@H](C)NP(=O)(OCC1C=CC(n2cc(C)c(=O)[nH]c2=O)O1)Oc1cccc(N(C)C)c1 (stereo partly shown) [Compound 599, 5′-[3-Dimethylaminophenyl methoxylaninylphosphate]-2′, 3′-didehydro-3′-deoxy thymidine] | 0.76 | 18000 (≈ 35.4 mM) | 0.0058 | 230 ± 20 |  | 
COC(=O)C(C)NP(=O)(OCC1C=CC(n2cc(C)c(=O)[nH]c2=O)O1)Oc1cc(Cl)ccc1Cl (stereo not shown) [Compound 608, 5′-[2,5-Dichlorophenylmethoxyalaninyl phosphate]-2′, 3′-didehydro-3′-deoxy thymidine] | 1.41 | 3700 | 0.1840 | 33 ± 17 |  | 
COC(=O)C(C)NP(=O)(OCC1C=CC(n2cc(C)c(=O)[nH]c2=O)O1)Oc1c(OC)cccc1OC (stereo not shown) [Compound 600, 5′-[2,6-Dimethoxyphenylmethoxyalaninyl phosphate]-2′, 3′-didehydro-3′-deoxy thymidine] | 0.40 | 43600 | 0.0029 | 290 ± 120 |  | 
COC(=O)[C@H](C)NP(=O)(OCC1C=CC(n2cc(C)c(=O)[nH]c2=O)O1)Oc1ccc(C#N)cc1 (stereo partly shown) [Compound 601, 5′-[4-Cyanophenylmethoxyalaninyl phosphate]-2′, 3′-didehydro-3′-deoxy thymidine] | 0.05* | 4000 | 0.1199 | 575 ± 5 |  | 
COC(=O)[C@H](C)NP(=O)(OCC1C=CC(n2cc(C)c(=O)[nH]c2=O)O1)Oc1ccc(OC)cc1 (stereo partly shown) [Compound 598, 5′-[4-Methoxyphenyl methoxylaninylphosphate]-2′, 3′-didehydro-3′-deoxy thymidine] | 0.39 | 11900 (≈ 24 mM) | 0.0102 | 555 ± 115 |  | 
COC(=O)[C@H](C)NP(=O)(OCC1C=CC(n2cc(C)c(=O)[nH]c2=O)O1)Oc1ccccc1 (stereo partly shown) [Compound 607, 5′-[Phenyl methoxylaninylphosphate]-2′, 3′-didehydro-3′-deoxy thymidine] | 0.38 | 44700 (≈ 96 mM) | 0.0082 | 57.5 ± 23 |  | 
COC(=O)[C@H](C)NP(=O)(OC[C@@H]1C=C[C@H](n2cc(C)c(=O)[nH]c2=O)O1)Oc1ccc(Br)cc1 (stereo partly shown) |  |  |  |  | 0.8521 | (1005.3 ± 134.0) ml/kg
